From patent US9221822B2, “Thiazolopyrimidine modulators as immunosuppressive agents” (Katholieke Universiteit Leuven, K.U.Leuven R&D, priority 2009, dated 2015) come the findings set out here.

Broadly, the melting point is the temperature of the solid-liquid transition. The term IC50 denotes the concentration that gives 50% inhibition. Read a high IC50 as lower potency.

System in one data set: not given
Assay: not given
Settings: not given
The compound `CCOc1nc(N)nc2sc(-c3ccc(F)cc3)cc12` [Example 363, 4-ethoxy-6-(4-fluorophenyl)thieno[2,3-d]pyrimidin-2-amine] showed a melting point of 142 °C.

A further data set deals with Human peripheral blood mononuclear cells (PBMCs) as Responder cells, RPMI 1788 Stimulator cells. The data set is described as follows: Mixed Lymphocyte Reaction (MLR) test. It counts as cell-based. The following applies: Homo sapiens, RPMI-1788, lowest concentration giving 50% inhibition of the MLR; 6 days coculture, 3H-thymidine incorporation. The method in brief: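 Proliferation was read as cpm after a 1 μCi ^3H-thymidine pulse on day 5 and harvest 18 h later, then expressed as % inhibition relative to an MLR without compound. The 6-day triplicate cocultures combined 0.12×10^6 Ficoll-isolated human PBMCs with 0.045×10^6 mitomycin C-inactivated RPMI 1788 cells in RPMI 1640 with 10% FCS.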
On the technique in general: Dividing cells build labelled thymidine or BrdU into new DNA.
On to `Nc1nc(N2CCN(C(=O)COc3ccc(Cl)cc3)CC2)c2nc(-c3cccnc3)sc2n1` [Example 121a, 5-amino-7-[4-(4-chlorophenoxyacetyl)piperazin-1-yl]-2-(pyridine-3-yl)thiazolo[5,4-d]pyrimidine], for which the IC50 was 0.05 µM.

`Nc1nc(N2CCN(C(=O)COc3ccccc3)CC2)c2nc(-c3ccc(F)cc3)[nH]c2n1` [Example 401, 1-(4-(2-amino-8-(4-fluorophenyl)-9H-purin-6-yl)piperazin-1-yl)-2-phenoxyethanone]: the IC50 was 1.09 µM.

`COc1cccc(C(=O)N2CCN(c3nc(N)nc4[nH]c(-c5ccc(F)cc5)nc34)CC2)c1` [Example 402, (4-(2-amino-8-(4-fluorophenyl)-9H-purin-6-yl)piperazin-1-yl)(3-methoxyphenyl)methanone] yielded an IC50 of over 10 µM.

Consider `Nc1nc(N2CCN(C(=O)Cc3cccs3)CC2)c2nc(-c3ccc(F)cc3)[nH]c2n1` [Example 403, 1-(4-(2-amino-8-(4-fluorophenyl)-9H-purin-6-yl)piperazin-1-yl)-2-(thiophen-2-yl)ethanone], for which half-maximal inhibition (IC50) was put at 7.08 µM.

`Nc1nc(N2CCN(C(=O)c3ccc(Cl)cc3)CC2)c2nc(-c3ccc(F)cc3)[nH]c2n1` [Example 404, (4-(2-amino-8-(4-fluorophenyl)-9H-purin-6-yl)piperazin-1-yl)(4-chlorophenyl)methanone] had an IC50 of over 10 µM.

Consider `Nc1nc(N2CCN(S(=O)(=O)Cc3ccccc3)CC2)c2nc(-c3ccc(F)cc3)[nH]c2n1` [Example 405, 6-(4-(benzylsulfonyl)piperazin-1-yl)-8-(4-fluorophenyl)-9H-purin-2-amine], for which the IC50 was over 10 µM.

The compound `Nc1nc(N2CCN(C(=O)c3cccc4ccccc34)CC2)c2nc(-c3ccc(F)cc3)[nH]c2n1` [Example 406, (4-(2-amino-8-(4-fluorophenyl)-9H-purin-6-yl)piperazin-1-yl)(naphthalen-1-yl)methanone] registered an IC50 of 6.4 µM.

For `CC(=O)N1CCN(c2nc(N)nc3[nH]c(-c4ccc(F)cc4)nc23)CC1` [Example 408, 1-(4-(2-amino-8-(4-fluorophenyl)-9H-purin-6-yl)piperazin-1-yl)ethanone], the IC50 is over 10 µM.

Compound `Nc1nc(N2CCN(c3nccs3)CC2)c2nc(-c3ccc(F)cc3)[nH]c2n1` [Example 409, 8-(4-fluorophenyl)-6-(4-(thiazol-2-yl)piperazin-1-yl)-9H-purin-2-amine] displayed an IC50 of 7.47 µM.

As to `Nc1nc(N2CCN(CC(=O)N3CCCC3)CC2)c2nc(-c3ccc(F)cc3)[nH]c2n1` [Example 410, 2-(4-(2-amino-8-(4-fluorophenyl)-9H-purin-6-yl)piperazin-1-yl)-1-(pyrrolidin-1-yl)ethanone], the IC50 was over 10 µM.

As to `Nc1nc(N2CCN(CC(=O)N3CCOCC3)CC2)c2nc(-c3ccc(F)cc3)[nH]c2n1` [Example 411, 2-(4-(2-amino-8-(4-fluorophenyl)-9H-purin-6-yl)piperazin-1-yl)-1-morpholinoethanone], the IC50 is over 10 µM.

The compound `Nc1nc(N2CCN(CC(=O)Nc3cccnc3)CC2)c2nc(-c3ccc(F)cc3)[nH]c2n1` [Example 412, 2-(4-(2-amino-8-(4-fluorophenyl)-9H-purin-6-yl)piperazin-1-yl)-N-(pyridin-3-yl)acetamide] returned an IC50 of 8.61 µM.

As for `CN(C(=O)CN1CCN(c2nc(N)nc3[nH]c(-c4ccc(F)cc4)nc23)CC1)c1ccccc1` [Example 413, 2-(4-(2-amino-8-(4-fluorophenyl)-9H-purin-6-yl)piperazin-1-yl)-N-methyl-N-phenylacetamide], the IC50 is over 10 µM.

With `Nc1nc(N2CCN(c3ccc(Cl)cc3)CC2)c2nc(-c3ccc(F)cc3)[nH]c2n1` [Example 414, 6-(4-(4-chlorophenyl)piperazin-1-yl)-8-(4-fluorophenyl)-9H-purin-2-amine], the IC50 is 3.87 µM.

Turning to `Nc1nc(N2CCN(c3ccc(F)cc3)CC2)c2nc(-c3ccc(F)cc3)[nH]c2n1` [Example 415, 8-(4-fluorophenyl)-6-(4-(4-fluorophenyl)piperazin-1-yl)-9H-purin-2-amine], the IC50 amounted to 4.16 µM.

`Nc1nc(N2CCN(CC(=O)Nc3ccccn3)CC2)c2nc(-c3ccc(F)cc3)[nH]c2n1` [Example 416, 2-(4-(2-amino-8-(4-fluorophenyl)-9H-purin-6-yl)piperazin-1-yl)-N-(pyridin-2-yl)acetamide] came in with an IC50 of 5.76 µM.

Compound `Nc1nc(N2CCN(CC(=O)Nc3nccs3)CC2)c2nc(-c3ccc(F)cc3)[nH]c2n1` [Example 417, 2-(4-(2-amino-8-(4-fluorophenyl)-9H-purin-6-yl)piperazin-1-yl)-N-(thiazol-2-yl)acetamide] showed an IC50 of over 10 µM.

Compound `Nc1nc(N2CCN(Cc3ccc(F)cc3)CC2)c2nc(-c3ccc(F)cc3)[nH]c2n1` [Example 418, 6-(4-(4-fluorobenzyl)piperazin-1-yl)-8-(4-fluorophenyl)-9H-purin-2-amine] had an IC50 of 9.86 µM.

In turn, `Nc1nc(N2CCCN(C(=O)COc3ccc(Cl)cc3)CC2)c2nc(-c3ccc(F)cc3)[nH]c2n1` [Example 421, 1-(4-(2-amino-8-(4-fluorophenyl)-9H-purin-6-yl)-1,4-diazepan-1-yl)-2-(4-chlorophenoxy)ethanone] returned an IC50 of 3.71 µM.

With `Cc1cccc(NC(=O)N2CCCN(c3nc(N)nc4[nH]c(-c5ccc(F)cc5)nc34)CC2)c1` [Example 422, 4-(2-amino-8-(4-fluorophenyl)-9H-purin-6-yl)-N-m-tolyl-1,4-diazepane-1-carboxamide], the IC50 stood at 1.18 µM.

For `CSc1nc2c(N3CCN(C(=O)COc4ccc(Cl)cc4)CC3)nc(N)nc2[nH]1` [Example 424, 1-(4-(2-amino-8-(methylthio)-9H-purin-6-yl)piperazin-1-yl)-2-(4-chlorophenoxy)ethanone], the IC50 amounted to 0.61 µM.

The compound `CCCSc1nc2c(N3CCN(C(=O)COc4ccc(Cl)cc4)CC3)nc(N)nc2[nH]1` [Example 425, 1-(4-(2-amino-8-(propylthio)-9H-purin-6-yl)piperazin-1-yl)-2-(4-chlorophenoxy)ethanone] displayed an IC50 of 1.02 µM.

`Nc1nc(N2CCN(C(=O)COc3ccc(Cl)cc3)CC2)c2nc(SCc3ccccc3)[nH]c2n1` [Example 426, 1-(4-(2-amino-8-(benzylthio)-9H-purin-6-yl)piperazin-1-yl)-2-(4-chlorophenoxy)ethanone] came in with an IC50 of 3.28 µM.

As for `Nc1nc(N2CCN(C(=O)COc3ccc(Cl)cc3)CC2)c2nc(SCCc3ccccc3)[nH]c2n1` [Example 427, 1-(4-(2-amino-8-(phenethylthio)-9H-purin-6-yl)piperazin-1-yl)-2-(4-chlorophenoxy)ethanone], the IC50 is over 10 µM.

In turn, `CSc1nc2c(N3CCN(C(=O)COc4ccc(Cl)cc4)CC3)nc(N)nc2n1C` [Example 428, 1-(4-(2-amino-9-methyl-8-(methylthio)-9H-purin-6-yl)piperazin-1-yl)-2-(4-chlorophenoxy)ethanone] returned an IC50 of 0.3 µM.

The compound `Nc1nc(N2CCN(C(=O)COc3ccc(Cl)cc3)CC2)c2nc(SC3CCCC3)[nH]c2n1` [Example 429, 1-(4-(2-amino-8-(cyclopentylthio)-9H-purin-6-yl)piperazin-1-yl)-2-(4-chlorophenoxy)ethanone] came in with an IC50 of 0.51 µM.

The compound `Cn1c(-c2ccc(F)cc2)nc2c(N3CCN(C(=O)COc4ccc(Cl)cc4)CC3)nc(N)nc21` [Example 430, 1-(4-(2-amino-8-(4-fluorophenyl)-9-methyl-9H-purin-6-yl)piperazin-1-yl)-2-(4-chlorophenoxy)ethanone] registered an IC50 of 0.36 µM.

Compound `Nc1nc(N2CCN(C(=O)COc3ccc(Cl)cc3)CC2)c2nc(-c3ccc(F)cc3)n(Cc3ccccc3)c2n1` [Example 431, 1-(4-(2-amino-9-benzyl-8-(4-fluorophenyl)-9H-purin-6-yl)piperazin-1-yl)-2-(4-chlorophenoxy)ethanone] displayed an IC50 of over 10 µM.

Compound `Nc1nc(N2CCN(C(=O)CCc3ccccc3)CC2)c2nc(-c3ccc(F)cc3)[nH]c2n1` [Example 438, 1-(4-(2-amino-8-(4-fluorophenyl)-9H-purin-6-yl)piperazin-1-yl)-3-phenylpropan-1-one] returned an IC50 of 2.58 µM.

Still in this data set, the particulars now being: lowest concentration giving 50% inhibition of the MLR; 6 days coculture, 3H-thymidine incorporation.
For `Nc1nc(N2CCN(c3ccncc3)CC2)c2nc(-c3ccc(F)cc3)[nH]c2n1` [Example 419], the IC50 is over 10 µM.

A further data set relates to cardiac allograft (C57BL/6 H-2b donor heart in Balb/c H-2d recipient). The data set is described as follows: mouse model of cardiac allograft transplantation (graft survival). In kind it is in vivo. The following applies: Example 448; 40 mg/kg by daily oral gavage until day 30; n=4. How it is done:
Inbreed C57BL/6 H-2^b and Balb/c H-2^d female mice, 8-10 weeks old, 20-25 g, were used as donor and recipient, respectively. Heterotopic heart transplantation was performed by implanting the donor heart on the neck of recipients using conventional microsurgery techniques. Graft beating was checked daily by inspection and palpation. Cessation of beating indicated graft rejection, which was confirmed by histological examination. Housing and all experimental animal procedures were approved by the Institutional Animal Care and Research Advisory Committee of the KU Leuven.
`Nc1nc(N2CCN(C(=O)COc3ccc(Cl)cc3)CC2)c2nc(-c3cccnc3)sc2n1` [Example 121a, 5-amino-7-[4-(4-chlorophenoxyacetyl)piperazin-1-yl]-2-(pyridine-3-yl)thiazolo[5,4-d]pyrimidine]: the “grafts with continuous survival during treatment” value is recorded as 3 out of 4.

The same data set, now with this note: Example 448; 40 mg/kg oral, treatment stopped day 30.
In the case of `Nc1nc(N2CCN(C(=O)COc3ccc(Cl)cc3)CC2)c2nc(-c3cccnc3)sc2n1` [Example 121a, 5-amino-7-[4-(4-chlorophenoxyacetyl)piperazin-1-yl]-2-(pyridine-3-yl)thiazolo[5,4-d]pyrimidine], the “graft beating after withdrawal of the treatment” value was “continued beating after withdrawal of the treatment (up to 60 days)”.

Staying with this data set, now noted: Example 449; 20 mg/kg per day.
In the case of `Cc1ccc(NC(=O)N2CCN(c3nc(N)nc4sc(-c5cccnc5)nc34)CC2)cc1` [Example 222, 4-(5-amino-2-(pyridin-3-yl)thiazolo[5,4-d]pyrimidin-7-yl)-N-p-tolylpiperazine-1-carboxamide], the graft survival result is on record as “up to 13 days”.

Staying with this data set, now noted: Example 449; 40 mg/kg per day.
Regarding `Cc1ccc(NC(=O)N2CCN(c3nc(N)nc4sc(-c5cccnc5)nc34)CC2)cc1` [Example 222, 4-(5-amino-2-(pyridin-3-yl)thiazolo[5,4-d]pyrimidin-7-yl)-N-p-tolylpiperazine-1-carboxamide], the “grafts continuously functioning after stopping the treatment on day 30” value is 3/4.

The data set is the same for the next values; noted with them: Example 449; 40 mg/kg per day by daily gavage until day 30.
With `Cc1ccc(NC(=O)N2CCN(c3nc(N)nc4sc(-c5cccnc5)nc34)CC2)cc1` [Example 222, 4-(5-amino-2-(pyridin-3-yl)thiazolo[5,4-d]pyrimidin-7-yl)-N-p-tolylpiperazine-1-carboxamide], the “grafts with continuous survival during treatment” value is on record as 4/6.
